target: human, KCNT1 (Homo sapiens (Human), UniProt Q5JUK3); test: FLIPR Tl/K Flux Assay; format: cell-based; settings: HEK293 cells stably expressing human KCNT1; Tl+ flux stimulated with EC80 of agonist Loxapine
Outline: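 HEK293 cells stably expressing human KCNT1 were loaded with FLIPR potassium dye in HEPES/HBSS pH 7.4 with 5 mM probenecid, 1 h at 25 °C, then given test compound for 30 min at 25 °C. Tl+ flux was triggered with chloride-free buffer containing Tl+ and EC80 loxapine and read 160 s. IC50 came from Hill fits of % inhibition.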

Sequence of human, KCNT1 (Q5JUK3 whole entry): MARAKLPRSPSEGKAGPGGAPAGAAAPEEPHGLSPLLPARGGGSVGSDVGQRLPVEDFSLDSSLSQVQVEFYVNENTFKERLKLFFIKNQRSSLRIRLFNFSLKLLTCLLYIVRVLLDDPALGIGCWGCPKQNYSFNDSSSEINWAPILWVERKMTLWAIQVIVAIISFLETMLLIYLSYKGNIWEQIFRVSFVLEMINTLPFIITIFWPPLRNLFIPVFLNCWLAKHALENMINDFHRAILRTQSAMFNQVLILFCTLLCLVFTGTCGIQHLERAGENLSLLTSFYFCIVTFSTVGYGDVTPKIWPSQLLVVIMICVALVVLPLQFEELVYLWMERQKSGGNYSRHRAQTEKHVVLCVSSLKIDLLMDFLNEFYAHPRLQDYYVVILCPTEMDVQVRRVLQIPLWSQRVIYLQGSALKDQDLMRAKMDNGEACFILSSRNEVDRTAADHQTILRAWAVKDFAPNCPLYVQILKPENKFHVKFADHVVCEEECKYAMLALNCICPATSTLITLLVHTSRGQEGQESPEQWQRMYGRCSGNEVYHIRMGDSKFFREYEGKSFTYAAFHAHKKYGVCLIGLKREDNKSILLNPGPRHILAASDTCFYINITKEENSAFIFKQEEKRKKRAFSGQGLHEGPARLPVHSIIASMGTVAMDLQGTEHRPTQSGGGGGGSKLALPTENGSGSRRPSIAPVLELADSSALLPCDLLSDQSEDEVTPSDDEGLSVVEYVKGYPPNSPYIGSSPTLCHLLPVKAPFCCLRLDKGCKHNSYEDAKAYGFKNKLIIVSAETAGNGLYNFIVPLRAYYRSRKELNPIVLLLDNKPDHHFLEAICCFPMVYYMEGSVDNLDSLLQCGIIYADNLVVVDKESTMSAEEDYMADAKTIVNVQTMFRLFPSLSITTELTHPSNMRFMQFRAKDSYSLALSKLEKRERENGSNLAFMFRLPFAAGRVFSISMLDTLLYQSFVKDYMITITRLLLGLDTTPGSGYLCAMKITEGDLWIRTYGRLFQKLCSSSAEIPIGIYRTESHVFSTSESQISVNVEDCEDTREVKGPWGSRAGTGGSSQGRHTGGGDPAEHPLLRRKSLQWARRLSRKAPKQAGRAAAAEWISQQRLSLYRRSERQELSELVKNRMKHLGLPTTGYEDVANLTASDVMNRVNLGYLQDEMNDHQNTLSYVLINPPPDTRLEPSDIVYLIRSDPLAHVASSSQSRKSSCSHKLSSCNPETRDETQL

| SMILES | IC50 [µM] |
| --- | --- |
| Cn1nc(C(C)(F)F)cc1C(=O)NC1CCCc2nn(-c3ccnc(C(F)(F)F)c3)cc21 (racemic) [Compound I-10, (rac)-3-(1,1-Difluoroethyl)-1-methyl-N-(2-(2-(trifluoromethyl)pyridin-4-yl)-4,5,6,7-tetrahydro-2H-indazol-4-yl)-1H-pyrazole-5-carboxamide] | < 0.25 |
| Cn1nc(C(F)(F)F)cc1C(=O)NC1CCCc2nn(-c3ccc(=O)[nH]c3)cc21 (racemic) [Compound I-33, (rac)-1-Methyl-N-(2-(6-oxo-1,6-dihydropyridin-3-yl)-4,5,6,7-tetrahydro-2H-indazol-4-yl)-3-(trifluoromethyl)-1H-pyrazole-5-carboxamide] | > 1 |
| O=C(N[C@H]1CCCc2nc(-c3cc(C4CC4)ncc3F)oc21)c1cncc(C(F)(F)F)n1 [Compound I-156a] | < 0.25 |
| Cn1nc(C(F)(F)F)cc1C(=O)N[C@H]1CCCc2nc(-c3cc(C4CC4)ncc3F)oc21 [Compound I-166a, (S)—N-(2-(2-Cyclopropyl-5-fluoropyridin-4-yl)-4,5,6,7-tetrahydrobenzo[d]oxazol-7-yl)-1-methyl-3-(trifluoromethyl)-1H-pyrazole-5-carboxamide] | < 0.25 |
| COc1cc(-c2cc3n(n2)CCCC[C@@H]3NC(=O)c2ccc(F)c(C#N)c2)ccn1 [Compound I-256a, (S)-3-Cyano-4-fluoro-N-(2-(2-methoxypyridin-4-yl)-5,6,7,8-tetrahydro-4H-pyrazolo[1,5-a]azepin-4-yl)benzamide] | < 0.25 |
| Cn1nc(C(F)(F)F)cc1C(=O)N[C@@H]1CCc2cnc(-c3ccnc(C(F)(F)F)c3)nc21 [Compound I-46b, (R)-1-methyl-3-(trifluoromethyl)-N-(2-(2-(trifluoromethyl)pyridin-4-yl)-6,7-dihydro-5H-cyclopenta[d]pyrimidin-7-yl)-1H-pyrazole-5-carboxamide] | > 1 |
| COc1cc(C(=O)N[C@H]2CCc3cnc(-c4ccnc(C(F)(F)F)c4)cc32)ccn1 [Compound I-196a, (S)-2-Methoxy-N-(3-(2-(trifluoromethyl)pyridin-4-yl)-6,7-dihydro-5H-cyclopenta[c]pyridin-5-yl)isonicotinamide] | 0.5 to 1 |
| CCc1cc(-n2cc3c(n2)CC[C@@H]3NC(=O)c2cc(C(F)(F)F)nn2C)ccn1 [Compound I-69a] | < 0.25 |
| O=C(N[C@H]1CCCc2nn(-c3ccnc(C(F)(F)F)c3)cc21)c1cc(Cl)cc(C(F)(F)F)c1 [Compound I-2a, (S)-3-Chloro-5-(trifluoromethyl)-N-(2-(2-(trifluoromethyl)pyridin-4-yl)-4,5,6,7-tetrahydro-2H-indazol-4-yl)benzamide] | < 0.25 |
| Cc1nc(C(F)(F)F)oc1C(=O)N[C@H]1CCCn2nc(-c3ccnc(C(F)(F)F)c3)cc21 [Compound I-125a, (S)-4-Methyl-2-(trifluoromethyl)-N-(2-(2-(trifluoromethyl)pyridin-4-yl)-4,5,6,7-tetrahydropyrazolo[1,5-a]pyridin-4-yl)oxazole-5-carboxamide] | < 0.25 |
| Cc1nc(C(F)(F)F)oc1C(=O)N[C@H]1CCc2cnc(-c3ccnc(C(F)(F)F)c3)cc21 [Compound I-192a, (S)-4-Methyl-2-(trifluoromethyl)-N-(3-(2-(trifluoromethyl)pyridin-4-yl)-6,7-dihydro-5H-cyclopenta[c]pyridin-5-yl)oxazole-5-carboxamide] | 0.25 to 0.5 |
| COc1cc(-c2cc3n(n2)CC[C@@H]3NC(=O)c2cc(F)cc(F)c2)ccn1 [Compound I-447a] | < 0.25 |
| O=C(N[C@H]1CCCc2oc(-c3cc(C4CC4)ncc3F)nc21)c1cncc(C(F)(F)F)n1 [Compound I-208a, (S)-N-(2-(2-Cyclopropyl-5-fluoropyridin-4-yl)-4,5,6,7-tetrahydrobenzo[d]oxazol-4-yl)-6-(trifluoromethyl)pyrazine-2-carboxamide] | < 0.25 |
| Cn1nc(C(F)(F)F)cc1C(=O)N[C@H]1CCn2nc(-c3ccnc(C4CC4)c3)cc21 [Compound I-68a] | < 0.25 |
| Cc1ccc(C(=O)N[C@H]2CCc3nn(-c4ccnc(C(F)(F)F)c4)cc32)c(C)c1 [Compound I-93a] | < 0.25 |
| O=C(N[C@H]1CCn2nc(-c3ccnc(C(F)(F)F)c3)cc21)C1CC(C(F)(F)F)C1 (stereo partly drawn) [Compound I-147a, (S)-3-(Trifluoromethyl)-N-(2-(2-(trifluoromethyl)pyridin-4-yl)-5,6-dihydro-4H-pyrrolo[1,2-b]pyrazol-4-yl)cyclobutane-1-carboxamide] | < 0.25 |
| Cc1cc(C(=O)N[C@@H]2CCc3nn(-c4ccnc(C(F)(F)F)c4)cc32)cc(C(F)(F)F)c1 [Compound I-373b] | < 0.25 |
| COc1cc(-c2nc3c(o2)[C@@H](NC(=O)c2cccc(OC(F)(F)F)c2)CCC3)c(F)cn1 [Compound I-176a, (S)-N-(2-(5-Fluoro-2-methoxypyridin-4-yl)-4,5,6,7-tetrahydrobenzo[d]oxazol-7-yl)-3-(trifluoromethoxy)benzamide] | < 0.25 |
| COc1cc(-c2cc3n(n2)CCCC[C@@H]3NC(=O)c2cc(F)cc(C#N)c2)ccn1 [Compound I-312a, (S)-3-Cyano-5-fluoro-N-(2-(2-methoxypyridin-4-yl)-5,6,7,8-tetrahydro-4H-pyrazolo[1,5-a]azepin-4-yl)benzamide] | < 0.25 |

Now from value to compound:

| IC50 [µM] | SMILES |
| --- | --- |
| < 0.25 | O=C(N[C@H]1CCCn2nc(-c3ccnc(C(F)(F)F)c3)cc21)c1cc(F)cc(C2CC2)c1 [Compound I-580a, (S)-3-Cyclopropyl-5-fluoro-N-(2-(2-(trifluoromethyl)pyridin-4-yl)-4,5,6,7-tetrahydropyrazolo[1,5-a]pyridin-4-yl)benzamide] |
| > 1 | O=C(N[C@H]1CCCc2cnc(-c3ccnc(C(F)(F)F)c3)cc21)c1cc2cccnn2c1 (single isomer, unassigned) [I-268*] |
| > 1 | COc1cc(-c2cc3n(n2)CCC3NC(=O)c2nc(C(F)(F)F)nn2C)ccn1 (single isomer, unassigned) [Compound I-473] |
| < 0.25 | COc1cc(-c2cc3n(n2)CC[C@H]3NC(=O)c2cc(F)cc(F)c2)ccn1 [Compound I-447b] |
| 0.5 to 1 | N#CC12CC(C(=O)N[C@H]3CCn4nc(-c5ccnc(C(F)(F)F)c5)cc43)(C1)C2 [Compound I-491a, (S)-3-Cyano-N-(2-(2-(trifluoromethyl)pyridin-4-yl)-5,6-dihydro-4H-pyrrolo[1,2-b]pyrazol-4-yl)bicyclo[1.1.1]pentane-1-carboxamide] |
| < 0.25 | O=C(N[C@H]1CCc2nn(-c3ccnc(C4CC4)c3)cc21)c1cc(F)cc(F)c1 [Compound I-462a] |
| > 1 | O=C(N[C@@H]1CCCc2nc(-c3ccnc(C(F)(F)F)c3)oc21)c1cncc(C(F)(F)F)n1 [Compound I-510b] |
| < 0.25 | CC(C)Oc1cc(C(=O)N[C@H]2CCn3nc(-c4ccnc(C5CC5)c4)cc32)ccn1 [Compound I-542a, (S)-N-(2-(2-Cyclopropylpyridin-4-yl)-5,6-dihydro-4H-pyrrolo[1,2-b]pyrazol-4-yl)-2-isopropoxyisonicotinamide] |
| 0.5 to 1 | COc1cc(-c2cc3n(n2)CCCC[C@H]3NC(=O)c2cc(F)cc(C#N)c2)c(F)cn1 [Compound I-516b] |
| < 0.25 | O=C(N[C@H]1CCn2nc(-c3ccnc(C(F)(F)F)c3)cc21)c1cn(C(F)(F)F)nc1C(F)(F)F [Compound I-521a, (S)-1,3-bis(trifluoromethyl)-N-(2-(2-(trifluoromethyl)pyridin-4-yl)-5,6-dihydro-4H-pyrrolo[1,2-b]pyrazol-4-yl)-1H-pyrazole-4-carboxamide] |

— patent US20250313548A1 (Actio Biosciences, Inc., priority 2023, published 2025)
